Consider 11 compounds from ChEMBL document CHEMBL1201862, “PubChem BioAssay data set” (2004).

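Five concentrations, 48 hours, 96-well plates. GI50 marks 50% less growth.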 Calls of active or inactive are those of the source. No stated cut-off is given here; in the data, active = GI50 up to about 1.1 µM and inactive = higher.

As a reminder, the GI50 is the concentration at which growth is held to half of that of the control.

What all share (experiment): DTP human tumour cell line panel, 48 h
Experiment [1] deals with CCRF-CEM.
Experiment [2] has as its system IGROV-1.
In experiment [3] the test system is NCI/ADR-RES.
The test system of experiment [4] is HT-29.
For experiment [5], the system named is U-251.
For experiment [6], the system named is OVCAR-8.
For experiment [7], the system named is COLO 205.
Experiment [8] has as its system MOLT-4.
Experiment [9] concerns SF-539.
The test system of experiment [10] is HCC 2998.
In experiment [11] the test system is Malme-3M.
The subject of experiment [12] is HOP-62.
The subject of experiment [13] is MCF7.
The test system of experiment [14] is HL-60.
Experiment [15] has as its system T47D.
Experiment [16] concerns RPMI-8226.
In experiment [17] the test system is OVCAR-5.
Experiment [18] deals with DU-145.
Experiment [19] has as its system HCT-116.
Experiment [20] has as its system PC-3.

For the compound `CC(=O)NNc1nc(C)c(C(=O)/C=C/C=C/c2ccccc2)s1`, the GI50 in experiment [1] was 61.2 µM (inactive); in [2], 33.7 µM (inactive); in experiment [3], 70.6 µM (inactive); in experiment [4], > 100 µM (inactive); in [5] it was 71.9 µM (inactive); in experiment [6] it was > 100 µM (inactive). The GI50 is > 100 µM (inactive) in [7]; 56.1 µM (inactive) in [8]; > 100 µM (inactive) in experiment [9]; > 100 µM (inactive) in [10]; > 100 µM (inactive) in experiment [11]; 80.4 µM (inactive) in experiment [12]. Further, the GI50 in [13] was > 100 µM (inactive); in experiment [14], 44.4 µM (inactive); in experiment [15], 33.2 µM (inactive); in experiment [16], 76 µM (inactive); in experiment [17] it was > 100 µM (inactive); in experiment [18], 54.5 µM (inactive). In addition, in experiment [19], the GI50 is 57.1 µM (inactive).

Take `O[C@@H]1C=C[C@]23CCN(Cc4cc5c(cc42)OCO5)[C@@H]3C1`: the GI50 in experiment [1] was 48.9 µM (inactive); in experiment [2], 44.3 µM (inactive); in experiment [3], > 100 µM (inactive); in experiment [4], 51.5 µM (inactive); in experiment [5] it was 41.2 µM (inactive); in [20] it was 45.2 µM (inactive). For the same compound, the GI50 in experiment [6] is 54.1 µM (inactive); in experiment [7], 44.8 µM (inactive); in [8], 61.1 µM (inactive); in experiment [9] it was > 100 µM (inactive); in experiment [11], > 100 µM (inactive); in experiment [12], 92 µM (inactive). The GI50 in experiment [13] is 52.1 µM (inactive); in [14] it was > 100 µM (inactive); in experiment [15] it was 39.1 µM (inactive); in experiment [16] it was 50.7 µM (inactive); in experiment [17], > 100 µM (inactive); in experiment [18] it was 24.7 µM (inactive). Also, in experiment [19], the GI50 is 42.8 µM (inactive).

For `O=c1[nH]c(=O)n(C2OC(CO)C(O)C2O)c2ccsc12` (configuration not stated), the GI50 in experiment [1], in [2], in experiment [3], in experiment [4], in experiment [5] and in [20] was > 100 µM (inactive) throughout. The GI50 in experiment [6] is > 10 µM (inactive); in [7] it was > 100 µM (inactive); in [8], > 100 µM (inactive); in [9], > 100 µM (inactive); in [10], > 100 µM (inactive); in experiment [11], > 100 µM (inactive). For the same compound, the GI50 in experiment [12], in [13], in experiment [14], in experiment [16], in experiment [17] and in experiment [18] was > 100 µM (inactive) in each case. For the same compound, in experiment [19], the GI50 was > 100 µM (inactive).

`O=C1C=CC2(C=C1)C[C@H](NC(=O)OCc1ccccc1)C(=O)O2`: the GI50 in experiment [1] was 1.08 µM (active); in experiment [2] it was 19.8 µM (inactive); in [4], 13.8 µM (inactive); in experiment [5], 19.3 µM (inactive); in [20], 16.1 µM (inactive); in experiment [6] it was 16 µM (inactive). Besides, the GI50 in experiment [7] is 5.93 µM (inactive); in [8] it was 1.8 µM (inactive); in experiment [9], 22.4 µM (inactive); in [10], 19.7 µM (inactive); in [11], 13 µM (inactive); in experiment [12] it was > 54.2 µM (inactive). Moreover, the GI50 in experiment [13] was 11.2 µM (inactive); in experiment [14] it was 2.04 µM (inactive); in [15], 15.9 µM (inactive); in experiment [16], 3.6 µM (inactive); in [17] it was 20.1 µM (inactive); in experiment [18], 30.5 µM (inactive). Moreover, the GI50 in [19] was 16 µM (inactive).

`CC(C)(C)OC(=O)N1C/C=C\C(=O)C2(OCCO2)c2ccccc21`: the GI50 in [1] was 25.4 µM (inactive); in experiment [2] it was 16.9 µM (inactive); in experiment [3], 47.5 µM (inactive); in experiment [4], 19.2 µM (inactive); in experiment [5] it was 29.9 µM (inactive); in [20], 29.4 µM (inactive). In addition, the GI50 is 24.9 µM (inactive) in [6]; 17.7 µM (inactive) in experiment [7]; 19.5 µM (inactive) in experiment [8]; 22.1 µM (inactive) in [9]; 22.7 µM (inactive) in experiment [11]; 48.9 µM (inactive) in experiment [12]. Moreover, the GI50 in [13] was 31.4 µM (inactive); in [15], 21.3 µM (inactive); in [16], 20.4 µM (inactive); in experiment [17], > 100 µM (inactive); in [18], 28.6 µM (inactive); in experiment [19] it was 17.4 µM (inactive).

Consider `CCOC(=O)c1c(SCCO)n(-c2ccccc2)c(=S)n(-c2ccccc2)c1=O`, for which the GI50 in [1], in [2], in experiment [3], in [4], in [5] and in [20] was > 100 µM (inactive) each time. In addition, the GI50 in experiment [6], in [7], in experiment [8], in experiment [11], in experiment [12] and in experiment [13] was > 100 µM (inactive) throughout. Further, the GI50 in experiment [14], in [15], in [16], in experiment [17], in experiment [18] and in [19] was > 100 µM (inactive) in each case.

Turning to `CC1=NC(=Cc2ccc(O)cc2)C(=O)N1n1c(-c2ccccc2)nc2ccccc2c1=O`, the GI50 in [1], in [2], in [4], in experiment [20], in [6] and in experiment [7] was > 100 µM (inactive) in each case. The GI50 in [8], in experiment [9], in [10], in [11], in experiment [12] and in [13] was > 100 µM (inactive) each time. Moreover, the GI50 in [14], in experiment [15], in [16], in experiment [18] and in experiment [19] was > 100 µM (inactive) each time.

`CC(=O)O[C@H]1[C@@H](N2CCCCC2)C[C@H]2[C@@H]3CC=C4C[C@@H](N5CCCC5)CC[C@]4(C)[C@H]3CC[C@@]21C`: the GI50 was 31.9 µM (inactive) in [1]; > 100 µM (inactive) in [2]; > 100 µM (inactive) in experiment [3]; 15.3 µM (inactive) in experiment [4]; 69 µM (inactive) in experiment [5]; 43.4 µM (inactive) in experiment [20]. Further, the GI50 is > 100 µM (inactive) in experiment [6]; > 100 µM (inactive) in experiment [7]; 44.5 µM (inactive) in experiment [8]; 17.8 µM (inactive) in experiment [9]; 14.3 µM (inactive) in [10]; 22.8 µM (inactive) in experiment [11]. For the same compound, the GI50 in experiment [12] is 49.8 µM (inactive); in experiment [13], > 100 µM (inactive); in experiment [14], 24.9 µM (inactive); in experiment [15] it was > 100 µM (inactive); in experiment [16], 26.5 µM (inactive); in experiment [17] it was 48.6 µM (inactive). Also, the GI50 in experiment [19] was 64.3 µM (inactive).

On to `Cc1ccc(/N=N/c2cc(=O)[nH]c(=O)[nH]2)cc1C`, for which the GI50 in experiment [1] was 2.2 µM (inactive); in [2], 13.9 µM (inactive); in experiment [3], 34 µM (inactive); in experiment [4], 1.97 µM (inactive); in [5], 15.2 µM (inactive); in experiment [20] it was 2.71 µM (inactive). Besides, the GI50 in experiment [6] is 14.6 µM (inactive); in [7] it was 7.76 µM (inactive); in [8], 3.94 µM (inactive); in [9], 11.2 µM (inactive); in experiment [10], 5.01 µM (inactive); in [11], 14.4 µM (inactive). For the same compound, the GI50 in [12] was 17.7 µM (inactive); in [13] it was 12.3 µM (inactive); in [14], 3.01 µM (inactive); in experiment [16] it was 3.01 µM (inactive); in [17] it was 15.4 µM (inactive); in experiment [18], 14.7 µM (inactive). The GI50 in [19] is 5.58 µM (inactive).

Turning to `CC(C)CCC[C@@H](C)C1CCC2[C@@H]3CCC4C[C@@H](NS(C)(=O)=O)CC[C@]4(C)C3CC[C@@]21C` (some centres not stated), the GI50 in experiment [1], in experiment [2], in experiment [3], in experiment [4], in experiment [5] and in experiment [20] was > 100 µM (inactive) throughout. The GI50 in [6], in [7], in experiment [8], in experiment [9], in experiment [11] and in [12] was > 100 µM (inactive) throughout. The GI50 in [13], in experiment [14], in [15], in experiment [16], in experiment [18] and in experiment [19] was > 100 µM (inactive) throughout.

Turning to `C=C(C)[C@H]1CC23C(=O)C(C(=O)C(C)C)=C(O)[C@](C)(C[C@H]2C1(C)C)C3=O` [LALIBINONE B], the GI50 in experiment [1] is 8.3 µM (inactive); in experiment [2], 12.5 µM (inactive); in experiment [3], 13.1 µM (inactive); in experiment [4], 11.9 µM (inactive); in experiment [5] it was 19.1 µM (inactive); in experiment [20], 12.6 µM (inactive). For the same compound, the GI50 in experiment [6] was 17.9 µM (inactive); in [7] it was 11.1 µM (inactive); in experiment [8], 3.72 µM (inactive); in experiment [11], 14.3 µM (inactive); in [12], 15.6 µM (inactive); in [13], 15.3 µM (inactive). The GI50 was 15.2 µM (inactive) in experiment [14]; 30.9 µM (inactive) in experiment [15]; 12.8 µM (inactive) in [16]; 14.5 µM (inactive) in [17]; 35.7 µM (inactive) in [18].
